Test results reported in the supplement of paper PMC10307832.

How the values were obtained:
Assay in all cases: relative viability (nuclei count vs DMSO), 5 days (fraction); higher = more cells survive
[1] = test system: LXF-289
Method in brief: (§1)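 Dosing by pin tool came one day after lung cancer cell lines were seeded in 1536-well plates, using either one drug or a fixed anchor-drug dose plus five library-drug doses (not always all listed) in √10 steps. After 5 days, nuclei were counted on 4× images. Relative viability is treated-well nuclei count divided by vehicle-well nuclei count, and values are medians of duplicate plates.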

[2] = test system: NCI-H2085
Method in brief: as §1

[3] = test system: LCLC-97TM1
Method in brief: as §1

[4] = test system: NCI-H596
Method in brief: as §1

[5] = test system: NCI-H1793
Method in brief: as §1

[6] = test system: NCI-H441
Method in brief: as §1

[7] = test system: NCI-H1666
Method in brief: as §1

[8] = test system: HOP-62
Method in brief: as §1

[9] = test system: PC-14
Method in brief: as §1

[10] = test system: COR-L23
Method in brief: as §1

[11] = test system: NCI-H2126
Method in brief: as §1

[12] = test system: H3255
Method in brief: as §1

[13] = test system: NCI-H661
Method in brief: as §1

[14] = test system: NCI-H1437
Method in brief: as §1

[15] = test system: EPLC-272H
Method in brief: as §1

[16] = test system: NCI-H1650
Method in brief: as §1

[17] = test system: ChaGo-K-1
Method in brief: as §1

[18] = test system: HARA
Method in brief: as §1

[19] = test system: HCC-78
Method in brief: as §1

[20] = test system: NCI-H1944
Method in brief: as §1

[21] = test system: NCI-H1395
Method in brief: as §1

[22] = test system: NCI-H2087
Method in brief: as §1

[23] = test system: NCI-H3122
Method in brief: as §1

CN1CCN(CCOc2cc(OC3CCOCC3)c3c(Nc4c(Cl)ccc5c4OCO5)ncnc3c2)CC1 [Saracatinib] + Cc1nc(Nc2ncc(C(=O)Nc3c(C)cccc3Cl)s2)cc(N2CCN(CCO)CC2)n1 [Dasatinib] (partner 0.075 µM)
relative viability ([1]; first compound 0.02 µM): 0.224
relative viability ([1]; first compound 0.2 µM): 0.218
relative viability ([1]; first compound 0.6325 µM): 0.185
relative viability ([1]; first compound 2 µM): 0.212
relative viability ([2]; first compound 0.02 µM): 0.286
relative viability ([2]; first compound 0.2 µM): 0.321
relative viability ([2]; first compound 0.6325 µM): 0.345
relative viability ([2]; first compound 2 µM): 0.3
relative viability ([3]; first compound 0.02 µM): 0.636
relative viability ([3]; first compound 0.2 µM): 0.519
relative viability ([3]; first compound 0.6325 µM): 0.723
relative viability ([3]; first compound 2 µM): 0.33
relative viability ([4]; first compound 0.02 µM): 0.558
relative viability ([4]; first compound 0.2 µM): 0.659
relative viability ([4]; first compound 0.6325 µM): 0.607
relative viability ([4]; first compound 2 µM): 0.57
relative viability ([5]; first compound 0.02 µM): 0.439
relative viability ([5]; first compound 0.6325 µM): 0.426
relative viability ([5]; first compound 2 µM): 0.341
relative viability ([6]; first compound 0.02 µM): 0.615
relative viability ([6]; first compound 0.2 µM): 0.442
relative viability ([6]; first compound 0.6325 µM): 0.715
relative viability ([6]; first compound 2 µM): 0.549
relative viability ([7]; first compound 0.02 µM): 0.772
relative viability ([7]; first compound 0.2 µM): 0.87
relative viability ([7]; first compound 0.6325 µM): 0.967
relative viability ([7]; first compound 2 µM): 0.875
relative viability ([8]; first compound 0.02 µM): 0.757
relative viability ([8]; first compound 0.2 µM): 0.663
relative viability ([8]; first compound 0.6325 µM): 0.766
relative viability ([8]; first compound 2 µM): 0.636
relative viability ([9]; first compound 0.02 µM): 0.211
relative viability ([9]; first compound 0.2 µM): 0.127
relative viability ([9]; first compound 0.6325 µM): 0.0455
relative viability ([9]; first compound 2 µM): 0.0398
relative viability ([10]; first compound 0.02 µM): 0.553
relative viability ([10]; first compound 0.2 µM): 0.533
relative viability ([10]; first compound 0.6325 µM): 0.542
relative viability ([10]; first compound 2 µM): 0.478
relative viability ([11]; first compound 0.02 µM): 0.569
relative viability ([11]; first compound 0.2 µM): 0.511
relative viability ([11]; first compound 0.6325 µM): 0.532
relative viability ([11]; first compound 2 µM): 0.398
relative viability ([12]; first compound 0.02 µM): 0.389
relative viability ([12]; first compound 0.2 µM): 0.303
relative viability ([12]; first compound 0.6325 µM): 0.344
relative viability ([12]; first compound 2 µM): 0.267
relative viability ([13]; first compound 0.02 µM): 0.891
relative viability ([13]; first compound 0.2 µM): 0.797
relative viability ([13]; first compound 0.6325 µM): 0.817
relative viability ([13]; first compound 2 µM): 0.528
relative viability ([14]; first compound 0.02 µM): 0.494
relative viability ([14]; first compound 0.2 µM): 0.283
relative viability ([14]; first compound 0.6325 µM): 0.389
relative viability ([14]; first compound 2 µM): 0.289
relative viability ([15]; first compound 0.02 µM): 0.382
relative viability ([15]; first compound 0.2 µM): 0.401
relative viability ([15]; first compound 0.6325 µM): 0.375
relative viability ([15]; first compound 2 µM): 0.307
relative viability ([16]; first compound 0.02 µM): 0.378
relative viability ([16]; first compound 0.2 µM): 0.299
relative viability ([16]; first compound 0.6325 µM): 0.359
relative viability ([16]; first compound 2 µM): 0.371
relative viability ([17]; first compound 0.02 µM): 0.732
relative viability ([17]; first compound 0.2 µM): 0.431
relative viability ([17]; first compound 0.6325 µM): 0.657
relative viability ([17]; first compound 2 µM): 0.459
relative viability ([18]; first compound 0.02 µM): 0.225
relative viability ([18]; first compound 0.2 µM): 0.224
relative viability ([18]; first compound 0.6325 µM): 0.272
relative viability ([18]; first compound 2 µM): 0.23
relative viability ([19]; first compound 0.02 µM): 0.477
relative viability ([19]; first compound 0.6325 µM): 0.421
relative viability ([19]; first compound 2 µM): 0.352
relative viability ([20]; first compound 0.02 µM): 0.219
relative viability ([20]; first compound 0.6325 µM): 0.182
relative viability ([20]; first compound 2 µM): 0.181
relative viability ([21]; first compound 0.02 µM): 0.394
relative viability ([21]; first compound 0.2 µM): 0.418
relative viability ([21]; first compound 0.6325 µM): 0.411
relative viability ([21]; first compound 2 µM): 0.402
relative viability ([22]; first compound 0.02 µM): 0.807
relative viability ([22]; first compound 0.2 µM): 0.69
relative viability ([22]; first compound 0.6325 µM): 0.928
relative viability ([22]; first compound 2 µM): 0.656
relative viability ([23]; first compound 0.02 µM): 0.879
relative viability ([23]; first compound 0.2 µM): 0.666
relative viability ([23]; first compound 0.6325 µM): 0.562
relative viability ([23]; first compound 2 µM): 0.655

CN1CCN(CCOc2cc(OC3CCOCC3)c3c(Nc4c(Cl)ccc5c4OCO5)ncnc3c2)CC1 [Saracatinib] + Cc1cc(Nc2cc(N3CCN(C)CC3)nc(Sc3ccc(NC(=O)C4CC4)cc3)n2)n[nH]1 [Tozasertib] (partner 0.1 µM)
relative viability ([1]; first compound 0.02 µM): 0.205
relative viability ([1]; first compound 0.2 µM): 0.183
relative viability ([1]; first compound 0.6325 µM): 0.164
relative viability ([1]; first compound 2 µM): 0.0819
relative viability ([2]; first compound 0.02 µM): 0.816
relative viability ([2]; first compound 0.2 µM): 0.676
relative viability ([2]; first compound 0.6325 µM): 0.722
relative viability ([2]; first compound 2 µM): 0.707
relative viability ([3]; first compound 0.02 µM): 0.21
relative viability ([3]; first compound 0.2 µM): 0.173
relative viability ([3]; first compound 0.6325 µM): 0.287
relative viability ([3]; first compound 2 µM): 0.185
relative viability ([4]; first compound 0.02 µM): 0.8
relative viability ([4]; first compound 0.2 µM): 0.847
relative viability ([4]; first compound 0.6325 µM): 1.07
relative viability ([4]; first compound 2 µM): 0.708
relative viability ([5]; first compound 0.02 µM): 0.318
relative viability ([5]; first compound 0.6325 µM): 0.209
relative viability ([5]; first compound 2 µM): 0.142
relative viability ([6]; first compound 0.02 µM): 0.557
relative viability ([6]; first compound 0.2 µM): 0.601
relative viability ([6]; first compound 0.6325 µM): 0.728
relative viability ([6]; first compound 2 µM): 0.641
relative viability ([7]; first compound 0.02 µM): 0.648
relative viability ([7]; first compound 0.2 µM): 0.607
relative viability ([7]; first compound 0.6325 µM): 0.66
relative viability ([7]; first compound 2 µM): 0.625
relative viability ([8]; first compound 0.02 µM): 0.367
relative viability ([8]; first compound 0.2 µM): 0.318
relative viability ([8]; first compound 0.6325 µM): 0.394
relative viability ([8]; first compound 2 µM): 0.384
relative viability ([9]; first compound 0.02 µM): 0.603
relative viability ([9]; first compound 0.2 µM): 0.514
relative viability ([9]; first compound 0.6325 µM): 0.475
relative viability ([9]; first compound 2 µM): 0.209
relative viability ([10]; first compound 0.02 µM): 0.185
relative viability ([10]; first compound 0.2 µM): 0.207
relative viability ([10]; first compound 0.6325 µM): 0.155
relative viability ([10]; first compound 2 µM): 0.174
relative viability ([11]; first compound 0.02 µM): 0.819
relative viability ([11]; first compound 0.2 µM): 0.846
relative viability ([11]; first compound 0.6325 µM): 0.815
relative viability ([11]; first compound 2 µM): 0.648
relative viability ([12]; first compound 0.02 µM): 0.621
relative viability ([12]; first compound 0.2 µM): 0.585
relative viability ([12]; first compound 0.6325 µM): 0.444
relative viability ([12]; first compound 2 µM): 0.291
relative viability ([13]; first compound 0.02 µM): 0.36
relative viability ([13]; first compound 0.2 µM): 0.308
relative viability ([13]; first compound 0.6325 µM): 0.342
relative viability ([13]; first compound 2 µM): 0.328
relative viability ([14]; first compound 0.02 µM): 0.431
relative viability ([14]; first compound 0.2 µM): 0.31
relative viability ([14]; first compound 0.6325 µM): 0.407
relative viability ([14]; first compound 2 µM): 0.344
relative viability ([15]; first compound 0.02 µM): 0.278
relative viability ([15]; first compound 0.2 µM): 0.34
relative viability ([15]; first compound 0.6325 µM): 0.179
relative viability ([15]; first compound 2 µM): 0.157
relative viability ([16]; first compound 0.02 µM): 0.435
relative viability ([16]; first compound 0.2 µM): 0.294
relative viability ([16]; first compound 0.6325 µM): 0.22
relative viability ([16]; first compound 2 µM): 0.204
relative viability ([17]; first compound 0.02 µM): 0.24
relative viability ([17]; first compound 0.2 µM): 0.233
relative viability ([17]; first compound 0.6325 µM): 0.218
relative viability ([17]; first compound 2 µM): 0.198
relative viability ([18]; first compound 0.02 µM): 0.118
relative viability ([18]; first compound 0.2 µM): 0.0998
relative viability ([18]; first compound 0.6325 µM): 0.0847
relative viability ([18]; first compound 2 µM): 0.0726
relative viability ([19]; first compound 0.02 µM): 0.403
relative viability ([19]; first compound 0.6325 µM): 0.572
relative viability ([19]; first compound 2 µM): 0.405
relative viability ([20]; first compound 0.02 µM): 0.23
relative viability ([20]; first compound 0.6325 µM): 0.227
relative viability ([20]; first compound 2 µM): 0.169
relative viability ([21]; first compound 0.02 µM): 0.722
relative viability ([21]; first compound 0.2 µM): 0.763
relative viability ([21]; first compound 0.6325 µM): 0.83
relative viability ([21]; first compound 2 µM): 0.619
relative viability ([22]; first compound 0.02 µM): 0.224
relative viability ([22]; first compound 0.2 µM): 0.206
relative viability ([22]; first compound 0.6325 µM): 0.258
relative viability ([22]; first compound 2 µM): 0.231
relative viability ([23]; first compound 0.02 µM): 0.569
relative viability ([23]; first compound 0.2 µM): 0.358
relative viability ([23]; first compound 0.6325 µM): 0.384
relative viability ([23]; first compound 2 µM): 0.298
